The results in this text go back to US10464912B2, “Choline cocrystal of epalrestat” (BIONEVIA PHARMACEUTICALS, INC., priority 2008, dated 2019).

Each structure is given as a SMILES string.

The conditions of this data set: ambient temperature, after approximately 24 hours, FIG. 6A.

Protocol: Samples were taken at approximately 1, 3, 6, and 24 hours, and analyzed by UV spectrophotometry using a SpectraMax M2 UV-VIS spectrophotometer. Wavelength calibration and photometric accuracy were performed using the SpectraMax Pro 5 software as an internal calibration of the instrument. The detector was zeroed with a reference well on a microplate filled with water on which data were obtained, and those data were subtracted from collected data. Samples were analyzed in the UV range at room temperature in the wells of a 96-well quartz plate.

As for `CC(/C=C1\SC(=S)N(CC(=O)O)C1=O)=C\c1ccccc1` [choline hydrogen diepalrestat], the “dissolved concentration of epalrestat (solubility in water)” value came out at 249 µg/mL.
